One data set relates to myoblast-FAP co-cultures. The settings on record: 0.1 uM, 3 days of differentiation, vs DMSO.
Data set [1] deals with Bone Marrow Derived Mesenchymal Stem Cells, human (BM-MSC); myofibroblast content. The experiment in a line: Myofibroblast reduction phenotype in TGF-beta-1 fibrogenic differentiation culture (high-content imaging). The data set is classed as cell-based. The method, then:
(§1) Bone Marrow Derived Mesenchymal Stem Cells, human (BM-MSC, ATCC PCS-500-012) were cultured in medium composed of Mesenchymal Stem Cell Basal Medium foe Adipose, Umbilcal and Bone Marrow-derived MSCs (ATCC PCS-400030 and Mesenchymal Stem Cell Growth for Bone Marrow-derived MSCs (ATCC PCS-500-041). Cells were seeded at a density of 15,000 cells/well in a 96-well format.
(§2) To induce fibrogenic differentiation BM-MSCs were cultured in a medium composed by Dulbecco's Modified Eagle Medium, 2% horse serum (HS) (Sigma H1270) and 5-10 ng/ml TGF-beta-1 (PreproTech 100-21). Cells were cultured in basal media for 2 days before being switched to fibrogenic differentiation media for 5 days, after which they were taken down for downstream assays. Compound treatment was added when media was switched to fibrogenic differentiation media, cells were treated with 0.1% DMSO if not receiving compound.
(§3) Cells were fixed in 4% PFA for 10 min at RT. Fixed cells were washed three times in 1×PBS and incubated in permeabilization solution (0.5% Triton X-100 in 1×PBS) for 10 min. Unspecific binding were saturated by incubating samples in blocking solution (5% donkey serum in 1×PBS) for 1 h. The cells were incubated at RT for 1 hour with gentle shaking in the presence of primary antibody against, alpha-smooth muscle actin (1:1000, Sigma™ A5228). The cells were washed three times with 0.05% Tween-20 in 1×PBS and incubated, for 1 hour at RT, with host-specific secondary antibodies in addition to counterstaining for Alexa Fluor Plus 750 Phalloidin (1:2000, Invitrogen™, A30105) and DAPI (1:2000). Primary and secondary antibodies were diluted according to the manufacturer's recommendations in blocking solution+0.1% Triton X-100. Finally, the cells were washed three times with 0.05% Tween-20 in 1×PBS, washed twice with 1×PBS and stored at 4° C. Images were acquired on a Thermo Scientific™ CellInsight™ CX7LED high content analysis (HCA) imaging instrument using a 10× objective. Nine fields per well were captured for quantification.
Columbus™ software (version 2.9.1, Perkin Elmer®) was used for analysis of acquired images. A custom analysis pipeline was constructed to quantify the percentage of myofibroblasts within the well. First, nuclei were segmented using “Method B” and intensity and morphology properties were calculated using standard settings. Second, viable nuclei were identified by gating on nuclei intensity, area, and roundness of the segmented objects. Next, a region of interest was then defined around the selected viable nuclei by expanding the outer boarder by […]. STAR morphology and SER texture properties were calculated within the region of interest for the alpha-smooth muscle actin and phalloidin channels using the following parameters: profile width=4 px, scale=1 px, Kernel normalization. The calculated morphology and texture properties were used to train a linear classifier consisting of two classes, myofibroblasts and mesenchymal stem cells, by selecting >100 objects in each negative control (DMSO) and positive control (fibrogenic differentiation media) conditions. The linear classifier was then applied to the untrained test wells using a batch analysis to calculate the percentage of myofibroblasts within each image using a formula output (myofibroblasts:number of objects/viable nuclei:number of objects)*100. Results were averaged across the nine fields imaged per well.
The initial six NOX4 inhibitors were assessed in replicate experiments for both potency of myofibroblast reducing activity and an associated IC50 for the myofibroblast reduction phenotype was determined (Table 1).

The test system of the next data set is cells. The conditions noted are these: as described in the art; cited from earlier work.
The conditions of data set [2]: as described; cited from earlier work.
The next data set deals with mesenchymal stem cells. The data set can be described thus: Phalloidin (F-actin) / alpha-SMA staining of treated mesenchymal stem cells. The data set is classed as cell-based, human. The conditions noted are these: for phalloidin (F-actin) staining / α-SMA immunofluorescence and phalloidin (F-actin) staining: 1 μM; for α-SMA immunofluorescence and phalloidin (F-actin) staining: FIG. 15. The method, then: as §1, §2, §3

In another data set the target is T1, NOX4 (Homo sapiens, UniProt Q9NPH5).
T1 sequence (Q9NPH5 1-578): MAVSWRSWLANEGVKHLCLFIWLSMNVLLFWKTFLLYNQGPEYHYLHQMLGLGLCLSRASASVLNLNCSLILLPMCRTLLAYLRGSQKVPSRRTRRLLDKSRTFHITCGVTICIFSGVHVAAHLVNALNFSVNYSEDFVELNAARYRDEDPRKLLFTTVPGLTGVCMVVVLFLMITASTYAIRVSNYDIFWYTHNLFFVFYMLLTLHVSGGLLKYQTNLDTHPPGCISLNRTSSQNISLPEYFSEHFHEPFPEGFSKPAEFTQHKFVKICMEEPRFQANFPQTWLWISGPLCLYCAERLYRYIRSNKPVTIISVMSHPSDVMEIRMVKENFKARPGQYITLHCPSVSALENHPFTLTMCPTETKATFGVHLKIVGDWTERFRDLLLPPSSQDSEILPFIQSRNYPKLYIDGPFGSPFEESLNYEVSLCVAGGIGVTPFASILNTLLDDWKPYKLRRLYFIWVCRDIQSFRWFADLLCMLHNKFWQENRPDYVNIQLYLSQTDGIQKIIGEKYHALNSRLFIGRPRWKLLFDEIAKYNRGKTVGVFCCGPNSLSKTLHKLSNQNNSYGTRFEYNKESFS
T1 sequence (P13498 1-195 partner): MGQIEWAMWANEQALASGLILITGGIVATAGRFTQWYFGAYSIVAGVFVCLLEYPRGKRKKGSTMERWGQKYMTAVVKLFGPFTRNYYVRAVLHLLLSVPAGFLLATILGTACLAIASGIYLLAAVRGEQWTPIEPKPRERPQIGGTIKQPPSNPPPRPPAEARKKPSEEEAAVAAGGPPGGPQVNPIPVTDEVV
The settings on record: cited from earlier work.

The mark [3] stands for this setting: Homo sapiens, BMMSC, first experiment, read-out: IC50 Phenotype (myofibroblast reduction).
Setting [4] is: Homo sapiens, BMMSC, replicate experiment, read-out: IC50 Phenotype Replicate.
The mark [5] stands for this setting: reported value, read-out: Reported Potency, IC50.

Molecules are shown by their SMILES. Where two headings read alike, the source gives them in different places.

Text for myoblast-FAP co-cultures: The impact of NOX4 inhibition on myogenic differentiation in myoblast-FAP co-cultures was investigated using primary myoblasts isolated from wild-type, uninjured mouse muscles and FAPs isolated from cardiotoxin-injured muscles of ROSA26-tdTomato mice (such mice contain cells that constitutively express the tdTomato fluorescent marker). […] Following 3 days of differentiation, cells were fixed in 4% paraformaldehyde (PFA) and stained for myosin heavy chain (MHC; marker of myogenic differentiation).

Consider `c1ccc2c(c1)[I+]c1ccccc1-2` [DPI, diphenyleneiodonium chloride], for which, in the data set on myoblast-FAP co-cultures, the “MHC-positive myocytes (number of cells per mm^2)” value is given as “statistically significant increase” and the “myogenic differentiation of myoblasts (MHC staining)” value is reported as “significantly increased”.

As a reminder, the IC50 is the concentration at which inhibition is half-maximal. Turning to `CCOC(=O)c1c(NC(=O)CN2CCN(C(=O)c3ccco3)CC2)sc2c1CCC2` [FTX7971], the IC50 in data set [1] (setting [3]) came to 4030 nM; in data set [1] (setting [4]) it was 5210 nM. Also, the “concentration of described activity in cells” value in the data set with cells was “about 5 μM”. In data set [2], the oral bioavailability result is reported as “orally bioavailable”.

`c1ccc(Cn2nnc3c(Sc4nc5ccccc5o4)ncnc32)cc1` [FTX7972]: the results for the IC50 in data set [1] (setting [3]) and in data set [1] (setting [4]) were 889 nM and 898 nM, respectively.

With `CCCc1c(-c2ccccc2)nn(-c2ccccn2)c1O` [FTX7973], the IC50 in data set [1] (first experiment, unit nm [sic], read-out: IC50 Phenotype (myofibroblast reduction)) amounted to 638 nM; in data set [1] (replicate experiment, unit nm [sic], read-out: IC50 Phenotype Replicate), 781 nM.

As for `CC(CNS(=O)(=O)c1ccc(C(F)(F)F)cc1)N1CCc2ccccc21` (stereo not drawn) [FTX7974], the results for the IC50 (in data set [1] (setting [3]); in data set [1] (setting [4]); at NOX4 (setting [5])) were 357 nM, 333 nM and 2000 nM, respectively. The “phalloidin (F-actin) staining” value with mesenchymal stem cells is recorded as “significant phalloidin staining”. Besides, in the data set with mesenchymal stem cells, the “α-SMA immunofluorescence and phalloidin (F-actin) staining” value (“α-SMA immunofluorescence and phalloidin” for short) is “exhibited both α-SMA immunofluorescence and phalloidin (F-actin) staining”.

On to `Cc1ccccc1CCNS(=O)(=O)c1c(Cl)cc(Br)cc1Cl` [FTX7981], for which the IC50 in data set [1] (setting [3]) is 253 nM; in data set [1] (setting [4]) it was 342 nM; at NOX4 (reported, read-out: IC50 NOX4) it was 300 nM. In the data set with mesenchymal stem cells, the “α-SMA immunofluorescence and phalloidin” value is “exhibited both α-SMA immunofluorescence and phalloidin (F-actin) staining”.

Regarding `Cc1ccc(N2CCN(Cc3nc(N)nc(Nc4ccc(C)c(C)c4)n3)CC2)cc1` [FTX7983], the IC50 came out at 331 nM in data set [1] (Homo sapiens, BMMSC, first experiment, unit nm [sic], read-out: IC50 Phenotype (myofibroblast reduction)) and 401 nM in data set [1] (Homo sapiens, BMMSC, replicate experiment, unit nm [sic], read-out: IC50 Phenotype Replicate). In addition, the “α-SMA immunofluorescence and phalloidin” value in the data set on mesenchymal stem cells was “exhibited both α-SMA immunofluorescence and phalloidin (F-actin) staining”.

One may read the Ki as the dissociation constant of the complex between target and ligand, obtained from inhibition or displacement. `O=c1c2c3n(c(=O)cc2[nH]n1-c1ccccc1Cl)CCCN(Cc1ccccc1)C3` [FTX7990]: the IC50 in data set [1] (setting [3]) came out at 158 nM; in data set [1] (setting [4]) it was 149 nM. Moreover, in data set [1] (treated cells in culture), the “reduction of myofibroblast content (concentration-response)” value is on record as “dose-dependent reduction of myofibroblast content”. Besides, the Ki on NOX4 (reported value, read-out: Reported Potency, Ki) is 70 nM. For the same compound, in data set [2], the oral bioavailability entry is “orally bioavailable”.

On to `COc1cc(NC(=O)c2ccc3cc(Cl)ccc3c2)c(C(=O)O)cc1C#N` [FTX7995], for which the results for the IC50 (in data set [1] (setting [3]); in data set [1] (setting [4]); on NOX4 (setting [5])) were 8.8 nM, 10.9 nM and 2 nM, respectively. In addition, the phalloidin staining entry with mesenchymal stem cells (10 nM) is listed as “exhibited phalloidin staining”; in the data set with mesenchymal stem cells (100 nM and 1 μM), “enhanced phalloidin staining”. In addition, in the data set on mesenchymal stem cells, the “phalloidin (F-actin) staining” value is given as “significant phalloidin staining”. Moreover, the “α-SMA immunofluorescence and phalloidin” value in the data set on mesenchymal stem cells is “exhibited both α-SMA immunofluorescence and phalloidin (F-actin) staining”.

Take `Cc1c2c(=O)n(-c3ccccc3Cl)[nH]c2cc(=O)n1Cc1ccccn1` [FTX8018]: the IC50 in data set [1] (setting [3]) was found to be 149 nM. Also, in data set [2], the oral bioavailability result is “orally bioavailable”.

The values are drawn from patent publication US20250223560A1, “NOX4 INHIBITOR COMPOSITIONS AND METHODS FOR REGENERATION OF DYSTROPHIC MUSCLE” (FULCRUM THERAPEUTICS, INC., priority 2022, published 2025).
